The values that follow come from patent US10117950B2, “Compounds and compositions for the treatment of ocular disorders” (Graybug Vision, Inc., priority 2015, dated 2018).

Data set [1] is described as follows: Determination of drug solubility. The format is physicochemical. To be noted: for solubility: thermodynamic from solid. The protocol:
For each test, approximately 5-10 mg was transferred to a 10 mL glass vial. Aqueous or organic solvent was added to each vial to achieve an overall concentration of 50 mg/mL. After vortexing aggressively for 2-3 minutes and sonicating in a bath sonicator for 5 minutes, undissolved drug was spun down at 1200 rpm for 5 minutes to generate a pellet. The supernatant was collected and filtered through a 0.2 μm nylon syringe filter into HPLC vials for drug content analysis. Drug concentration was determined by comparing against a standard calibration curve.

Data set [2] in a line: In vitro stability of bifunctional conjugates (HPLC, 254 nm). It is filed as physicochemical. Particulars: PBS pH 7.0, 20% DMSO; for degradation kinetics: one day. The protocol:
Briefly, brinzolamide-PLA (n=4)-succinate-5-hydroxy-sunitinib (60-1) or dorzolamide-PLA (n=4)-succinate-5-hydroxy-sunitinib (58-5) was first dissolved in a solution of PBS (pH 7.0) with 20% DMSO (v/v) and incubated at 37° C. or 60° C. for 14 days.

Data set [3] addresses T1, bovine erythrocyte carbonic anhydrase II (Bos taurus, UniProt P00921).
T1 construct: purified bovine erythrocyte carbonic anhydrase II; from tissue; host or cells: bovine erythrocytes
Kind of data set: Carbonic anhydrase II inhibition, colorimetric 4-nitrophenyl acetate hydrolysis. The format is biochemical. The protocol: The catalytic activity of carbonic anhydrase II was assessed by a colorimetric method, in which 4-nitrophenyl acetate is hydrolyzed to acetate and nitrophenolate. The nitrophenolate ionizes to generate a bright yellow anion that is readily detected by measuring its absorbance at 350-400 nm. […] Acetazolamide was added as a positive control and 100% DMSO was added as a negative control. The reaction was initiated with the addition of 20 μL of 4-nitrophenyl acetate (0.7 mM in ethanol).

Data set [4] is described as follows: In vitro stability of latanoprost NCEs (RP-HPLC). The format is physicochemical. To be noted: PBS pH 7.0, 20% DMSO, 37° C., 14 days. The protocol:
Latanoprost and latanoprost-PLA conjugates were solubilized with the addition of 20% (v/v) DMSO and subsequently suspended to a concentration of 1 mg/mL in PBS (pH 7.0).

[5] abbreviates: DMSO, organic solvent or mixture, read-out: Solubility DMSO.
[6] abbreviates: water / aqueous solvent, read-out: Solubility Water.

Like-named read-outs stand apart in the source and are kept apart here.

T1 sequence (P00921 whole entry): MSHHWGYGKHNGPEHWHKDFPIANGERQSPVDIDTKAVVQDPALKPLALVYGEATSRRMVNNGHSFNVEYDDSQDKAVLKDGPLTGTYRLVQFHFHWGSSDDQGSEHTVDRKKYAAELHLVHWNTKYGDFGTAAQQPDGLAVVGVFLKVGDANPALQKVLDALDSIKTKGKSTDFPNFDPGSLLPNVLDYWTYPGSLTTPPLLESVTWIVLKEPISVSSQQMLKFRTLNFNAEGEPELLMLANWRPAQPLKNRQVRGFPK

Consider `CCN[C@H]1C[C@H](C)S(=O)(=O)c2sc(S(=O)(=O)NC(=O)[C@H](C)OC(=O)[C@H](C)OC(=O)[C@H](C)OC(=O)[C@H](C)OC(=O)CCC(=O)Oc3ccc4c(c3)/C(=C/c3[nH]c(C)c(C(=O)NCCN(CC)CC)c3C)C(=O)N4)cc21` [58-5, dorzolamide-PLA(n=4)-succinate-5-hydroxy-Sunitinib], for which the solubility in data set [1] (setting [5]) was over 50 mg/mL; in data set [1] (setting [6]) it was under 1 mg/mL. The “degradation kinetics” value in data set [2] is “rapidly decreasing after one day”. Besides, the “carbonic anhydrase inhibitory activity” value in data set [3] is “lowest inhibitory activity”. Further, in data set [3] (n = 2), half-maximal inhibition (IC50) was put at 0.222 ± 0.0363 µM.

Regarding `CCN[C@H]1CN(CCCOC)S(=O)(=O)c2sc(S(=O)(=O)NC(=O)[C@H](C)OC(=O)[C@H](C)OC(=O)[C@H](C)OC(=O)[C@H](C)OC(=O)CCC(=O)Oc3ccc4c(c3)/C(=C/c3[nH]c(C)c(C(=O)NCCN(CC)CC)c3C)C(=O)N4)cc21` [60-1, brinzolamide-PLA(n=4)-succinate-5-hydroxy-Sunitinib], the values for the solubility in data set [1] (setting [5]) and in data set [1] (setting [6]) were over 50 mg/mL and under 1 mg/mL, respectively. The “PLA (n=4) signal” value in data set [2] (after one day of incubation) is on record as 15.7%; in data set [2] (before incubation), 83%. The “degradation kinetics” value in data set [2] is given as “rapidly hydrolyzed”.

Regarding `CC(C)OC(=O)CCC/C=C\C[C@@H]1[C@@H](CC[C@@H](O)CCc2ccccc2)[C@H](O)C[C@@H]1O` [Latanoprost, latanoprost, reference compound], in data set [4], the “in vitro stability” value is listed as “good stability”. Moreover, the solubility was over 50 mg/mL in data set [1] (DCM, organic solvent or mixture, read-out: Solubility DCM); over 50 mg/mL in data set [1] (setting [5]); over 50 mg/mL in data set [1] (organic solvent (not named), organic solvent or mixture, organic solvent, read-out: organic solubility); under 1 mg/mL in data set [1] (setting [6]). For the same molecule, the “Solubility Water” value in data set [1] (water / aqueous solvent) is reported as “very low aqueous solubility”.

One may read the solubility as the dissolved amount per volume that the medium holds. In general, IC50 refers to the concentration at which inhibition is half-maximal. A high value points to lower potency.
